# Experimental data from patent US20090203797A1, “Antimycotic Patch” (priority 2007, published 2009).
# Structures can show the parent of a compound that is named as a salt.
# What was measured:
# [1] = from the interview form provided with 125 mg Lamisil Tablets; cited from earlier work
# [2] = octanol/water partition coefficient logKo/w; format: physicochemical; conditions: 32° C., HPLC of each layer
# Protocol: In the present invention, logKo/w is determined in the following manner. First, a drug is dissolved in a suitable amount of octanol (or water) at 32° C. followed by the further addition of an equal amount of water (or octanol) and mixing well. After the mixture divides into two layers, the concentration of drug in each layer is measured by HPLC and logKo/w is determined using the equation below. LogKo/w=log(drug concentration in octanol phase/drug concentration in aqueous phase)
logP [2],Structure (SMILES),logKo/w value [1]
,CN(C/C=C/C#CC(C)(C)C)Cc1cccc2ccccc12 [terbinafine hydrochloride],0.87
5.8,CN(C/C=C/C#CC(C)(C)C)Cc1cccc2ccccc12 [terbinafine-base],
